Reference: patent US20140135310A1, “SULPHONAMIDE DERIVATIVES OF ALICYCLIC AMINES FOR THE TREATMENT OF CENTRAL NERVOUS SYSTEM DISEASES” (Adamed Sp. z o.o., priority 2011, published 2014)

What was measured:
[1] = target: D2 dopaminergic receptors (Homo sapiens, UniProt P14416); experiment: Cellular functional assay, D2 dopaminergic receptors; type: cell-based; details: D2S (h), HEK-293 cells; for D2 ag [%]: agonism, percent of control specific agonist response (3 μM dopamine for control); for D2 antag [%]: antagonism, stimulus dopamine (30 nM)
Experimental: (§1) The results are expressed as a percent of control specific agonist response ((measured specific response/control specific agonist response)×100) obtained in the presence of the test compounds.
(§2) The EC50 values (concentration producing a half-maximal specific response) and IC50 values (concentration causing a half-maximal inhibition of the control specific agonist response) were determined by non-linear regression analysis of the concentration-response curves generated with mean replicate values using Hill equation curve fitting (Y=D+[(A−D)/(1+(C/C50)nH)], where Y=specific response, D=minimum specific response, A=maximum specific response, C=compound concentration, and C50=EC50 or IC50, and nH=slope factor). This analysis was performed using a software developed at Cerep (Hill software) and validated by comparison with data generated by the commercial software SigmaPlot® 4.0 for Windows® (© 1997 by SPSS Inc.).
(§3) For the antagonists, the apparent dissociation constants (Kb) were calculated using the modified Cheng Prusoff equation (Kb=IC50/(1+(A/EC50A)), where A=concentration of reference agonist in the assay, and EC50A=EC50 value of the reference agonist).

[2] = target: 5-HT6 serotoninergic receptors (Homo sapiens, UniProt P50406); experiment: Cellular functional assay, 5-HT6 serotoninergic receptors; type: cell-based; details: agonist mode; percent of control specific agonist response
Experimental: as §1, §2, §3

α2C adrenergic receptors = target: T1, α2C adrenergic receptors (Homo sapiens, UniProt P18825); experiment: Radioligand binding assay, adrenergic α2C receptors; details: test compound 1×10^−6 M
T1 construct: expressed in transfected cells; host or cells: CHO cells
T1 sequence (P18825 1-462): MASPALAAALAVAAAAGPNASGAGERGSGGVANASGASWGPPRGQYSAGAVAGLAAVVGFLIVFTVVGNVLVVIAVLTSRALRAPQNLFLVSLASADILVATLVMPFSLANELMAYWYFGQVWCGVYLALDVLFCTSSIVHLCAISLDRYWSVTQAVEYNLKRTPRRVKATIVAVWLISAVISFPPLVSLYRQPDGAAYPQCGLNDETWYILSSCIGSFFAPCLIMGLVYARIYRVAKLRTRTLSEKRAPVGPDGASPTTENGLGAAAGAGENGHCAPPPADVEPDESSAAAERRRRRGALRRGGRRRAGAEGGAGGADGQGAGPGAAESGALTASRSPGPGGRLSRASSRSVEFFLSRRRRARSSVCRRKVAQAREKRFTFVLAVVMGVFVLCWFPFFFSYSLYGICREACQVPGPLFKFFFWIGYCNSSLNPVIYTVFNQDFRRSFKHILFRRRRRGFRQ
In short: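 Competitive radioligand binding at human α2C receptors, with scintillation counting. Nonspecific binding defined with excess unlabelled ligand; results given as % inhibition of control specific binding. IC50 from Hill-equation fits of competition curves; Ki via Cheng-Prusoff using radioligand concentration and Scatchard-derived KD.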

5-HT6 receptor = target: T2, 5-HT6 receptor (Homo sapiens, UniProt P50406); experiment: Radioligand binding assay, serotoninergic 5-HT6 receptors; details: for inhibition at 1 µM: binding assay result in %, Table 5a; for Ki: read-out: Inhibition constants Ki, 5-HT6
T2 construct: purchased PerkinElmer
In short: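 Values are Ki from Cheng–Prusoff, taking IC50 from Hill nonlinear regression of competition curves and KD from a Scatchard plot. Specific binding was total minus binding with excess unlabelled ligand. Radioligand displacement was detected by scintillation counting, and data were also reported as percent of control specific binding.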

receptors D4.4 = target: T3, receptors D4.4 (Homo sapiens, UniProt P21917); experiment: Radioligand binding assay, dopaminergic D4 (D4.4) receptors; details: test compound 1×10^−6 M
T3 sequence (P21917 1-419): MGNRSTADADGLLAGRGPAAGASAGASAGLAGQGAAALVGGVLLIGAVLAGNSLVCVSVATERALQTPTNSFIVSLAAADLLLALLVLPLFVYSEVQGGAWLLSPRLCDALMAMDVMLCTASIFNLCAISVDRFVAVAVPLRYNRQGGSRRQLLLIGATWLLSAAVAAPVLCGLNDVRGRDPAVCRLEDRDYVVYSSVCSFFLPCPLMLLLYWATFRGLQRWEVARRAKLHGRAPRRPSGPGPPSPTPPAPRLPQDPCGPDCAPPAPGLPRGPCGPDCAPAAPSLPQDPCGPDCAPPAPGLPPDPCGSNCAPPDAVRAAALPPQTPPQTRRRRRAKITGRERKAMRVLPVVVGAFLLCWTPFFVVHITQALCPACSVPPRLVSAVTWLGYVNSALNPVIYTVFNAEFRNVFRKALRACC
In short: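 Scintillation read-out. Specific = total − nonspecific (excess cold ligand). Data as % of control specific binding / % inhibition; IC50 by Hill fit; Ki = IC50/(1+L/KD), KD from Scatchard plot.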

5-HT7 receptor = target: T4, 5-HT7 receptor (Homo sapiens, UniProt P34969); experiment: Radioligand binding assay, serotoninergic 5-HT7 receptors; details: binding assay result in %, Table 5a
T4 construct: purchased PerkinElmer
In short: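 Ki values used the Cheng–Prusoff equation, with KD from Scatchard analysis, applied to IC50 from Hill fits of human 5-HT7 radioligand competition curves. Bound radioligand was counted by scintillation, and excess unlabelled ligand set the non-specific binding.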

[3] = target: T5, serotonin transporter (SERT) (Homo sapiens, UniProt P31645); experiment: Radioligand binding assay, serotonin transporter (SERT); details: for inhibition at 1 µM: binding assay, test compound 1×10^−6 M
T5 construct: expressed in transfected cells; host or cells: CHO cells
In short: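 Values are derived from competition curves fitted by the Hill equation to give IC50, then converted to Ki by Cheng-Prusoff with radioligand Kd from Scatchard analysis. Specific binding equals total minus non-specific (excess cold ligand), counted by scintillation, and is also expressed as percent inhibition of control.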

T4 sequence (P34969 whole entry): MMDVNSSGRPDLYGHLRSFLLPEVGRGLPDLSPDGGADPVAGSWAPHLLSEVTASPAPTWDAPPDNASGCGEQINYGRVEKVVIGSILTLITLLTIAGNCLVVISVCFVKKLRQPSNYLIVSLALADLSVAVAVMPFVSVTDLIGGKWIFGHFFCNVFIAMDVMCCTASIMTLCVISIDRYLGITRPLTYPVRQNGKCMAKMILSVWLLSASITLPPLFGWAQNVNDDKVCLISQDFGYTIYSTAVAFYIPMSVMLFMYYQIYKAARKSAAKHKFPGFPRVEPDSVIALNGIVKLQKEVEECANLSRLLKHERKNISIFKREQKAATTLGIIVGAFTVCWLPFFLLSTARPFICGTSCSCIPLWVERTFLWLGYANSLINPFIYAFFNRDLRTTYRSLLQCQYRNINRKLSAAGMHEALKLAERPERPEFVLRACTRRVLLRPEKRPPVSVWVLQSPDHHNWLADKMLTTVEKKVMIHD
Chain of D2 dopaminergic receptors (P14416 whole entry): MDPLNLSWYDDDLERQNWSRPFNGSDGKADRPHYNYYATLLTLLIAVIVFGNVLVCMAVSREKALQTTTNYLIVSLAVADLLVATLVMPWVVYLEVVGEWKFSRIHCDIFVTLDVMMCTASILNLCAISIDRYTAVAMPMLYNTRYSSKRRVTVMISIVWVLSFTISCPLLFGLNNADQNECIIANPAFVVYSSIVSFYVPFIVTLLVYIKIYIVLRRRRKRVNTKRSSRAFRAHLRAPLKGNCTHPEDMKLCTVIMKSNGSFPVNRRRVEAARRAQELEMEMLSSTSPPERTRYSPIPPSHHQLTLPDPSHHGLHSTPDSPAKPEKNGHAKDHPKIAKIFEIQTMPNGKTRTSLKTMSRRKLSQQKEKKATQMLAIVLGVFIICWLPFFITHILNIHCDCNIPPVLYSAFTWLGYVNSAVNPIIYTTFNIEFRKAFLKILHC
T5 sequence (P31645 whole entry): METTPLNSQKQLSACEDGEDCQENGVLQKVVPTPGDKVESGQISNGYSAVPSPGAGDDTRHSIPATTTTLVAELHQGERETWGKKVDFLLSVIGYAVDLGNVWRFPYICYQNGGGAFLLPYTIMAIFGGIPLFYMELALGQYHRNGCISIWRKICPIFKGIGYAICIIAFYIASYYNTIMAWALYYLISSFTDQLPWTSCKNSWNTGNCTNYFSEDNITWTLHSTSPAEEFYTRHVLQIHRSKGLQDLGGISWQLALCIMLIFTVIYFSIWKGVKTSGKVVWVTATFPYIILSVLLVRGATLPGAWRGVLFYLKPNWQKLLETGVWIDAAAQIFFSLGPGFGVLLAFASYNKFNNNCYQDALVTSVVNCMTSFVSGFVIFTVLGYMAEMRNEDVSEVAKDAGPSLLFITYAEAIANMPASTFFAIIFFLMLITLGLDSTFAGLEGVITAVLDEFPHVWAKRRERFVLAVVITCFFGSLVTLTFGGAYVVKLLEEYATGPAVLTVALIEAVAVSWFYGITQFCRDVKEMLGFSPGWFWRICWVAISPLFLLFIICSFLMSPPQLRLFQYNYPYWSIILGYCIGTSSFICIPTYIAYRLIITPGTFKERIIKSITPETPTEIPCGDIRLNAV
T2 sequence (P50406 whole entry): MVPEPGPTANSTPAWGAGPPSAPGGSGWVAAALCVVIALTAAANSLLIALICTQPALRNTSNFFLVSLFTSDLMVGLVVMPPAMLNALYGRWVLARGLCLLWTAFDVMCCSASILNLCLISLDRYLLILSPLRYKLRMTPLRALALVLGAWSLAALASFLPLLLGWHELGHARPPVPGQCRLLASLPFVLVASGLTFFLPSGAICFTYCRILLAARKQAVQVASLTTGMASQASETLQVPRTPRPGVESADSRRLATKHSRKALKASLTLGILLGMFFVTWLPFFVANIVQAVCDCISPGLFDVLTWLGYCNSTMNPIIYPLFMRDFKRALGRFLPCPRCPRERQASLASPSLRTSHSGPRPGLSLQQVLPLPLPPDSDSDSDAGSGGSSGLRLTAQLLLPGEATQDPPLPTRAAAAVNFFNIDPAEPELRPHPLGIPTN
Chain of 5-HT6 serotoninergic receptors (P50406 whole entry): as above

O=S(=O)(N[C@H]1CCN(CCCc2noc3cc(F)ccc23)C1)c1cc2ccccc2s1 [Compound 197, N-[(3S)-1-[3-(6-Fluoro-1,2-benzoxazol-3-yl)propyl]pyrrolidin-3-yl]benzo-thiophene-2-sulphonamide] was tested, and the “D2 ag [%]” value [1] was 1%, the “D2 antag [%]” value [1] was 82% and the “5-HT6 ag [%]” value [2] was −1%. It also gave an inhibition at 1 µM (α2C adrenergic receptors) of 90%, an inhibition at 1 µM (5-HT6 receptor) of 97% and a Ki (5-HT6 receptor) of 16 nM. For the same molecule, the inhibition at 1 µM (receptors D4.4) was 81%, the inhibition at 1 µM (5-HT7 receptor) was 101% and the inhibition at 1 µM [3] was 58%.

For Cc1c(S(=O)(=O)N[C@@H]2CCN(CCCc3noc4cc(F)ccc34)C2)sc2ccc(F)cc12 [Compound 202, 5-Fluoro-N-[(3R)-1-[3-(6-fluoro-1,2-benzoxazol-3-yl)propyl]pyrrolidin-3-yl]-3-methyl-benzothiophene-2-sulphonamide], the “D2 ag [%]” value [1] was 0%, the “D2 antag [%]” value [1] was 95% and the “5-HT6 ag [%]” value [2] was 1%. For the same molecule, the inhibition at 1 µM (α2C adrenergic receptors) was 95%, the inhibition at 1 µM (5-HT6 receptor) was 100% and the Ki (5-HT6 receptor) was 7.1 nM. The inhibition at 1 µM (receptors D4.4) was 76%, the inhibition at 1 µM (5-HT7 receptor) was 98% and the inhibition at 1 µM [3] was 58%.

With O=S(=O)(NCC1CCN(CCCc2noc3cc(F)ccc23)C1)c1cccc2ccccc12 (centres unmarked) [Compound 239, N-[[1-[3-(6-Fluoro-1,2-benzoxazol-3-yl)propyl]pyrrolidin-3-yl]methyl]naphthalene-1-sulphonamide] the “D2 ag [%]” value [1] was 2%, the “D2 antag [%]” value [1] was 56% and the “5-HT6 ag [%]” value [2] was 2%. The inhibition at 1 µM (α2C adrenergic receptors) was 89%, the inhibition at 1 µM (5-HT6 receptor) was 97% and the inhibition at 1 µM (receptors D4.4) was 78%. It also gave an inhibition at 1 µM (5-HT7 receptor) of 92% and an inhibition at 1 µM [3] of 36%.

O=S(=O)(NC1CCN(CCCc2noc3cc(F)ccc23)C1)c1cc2ccc(F)cc2s1 (centres unmarked) [Compound 234, 6-Fluoro-N-[1-[3-(6-fluoro-1,2-benzoxazol-3-yl)propyl]pyrrolidin-3-yl]benzothiophene-2-sulphonamide] was tested, and the “D2 ag [%]” value [1] was 2%, the “D2 antag [%]” value [1] was 91% and the “5-HT6 ag [%]” value [2] was −1%. It also gave an inhibition at 1 µM (α2C adrenergic receptors) of 90%, an inhibition at 1 µM (5-HT6 receptor) of 98% and an inhibition at 1 µM (receptors D4.4) of 70%. For the same molecule, the inhibition at 1 µM (5-HT7 receptor) was 97% and the inhibition at 1 µM [3] was 65%.

In the case of O=S(=O)(NC1CCN(CCCc2noc3cc(F)ccc23)C1)c1cccc2ccccc12 (centres unmarked) [Compound 20, N-[1-[3-(6-Fluoro-1,2-benzoxazol-3-yl)propyl]pyrrolidin-3-yl]naphthalene-1-sulphonamide], the “D2 ag [%]” value [1] is reported as 4%, the “D2 antag [%]” value [1] is reported as 32% and the “5-HT6 ag [%]” value [2] is reported as 1%. It also gave an inhibition at 1 µM (α2C adrenergic receptors) of 78%, an inhibition at 1 µM (5-HT6 receptor) of 97% and an inhibition at 1 µM (receptors D4.4) of 100%. It also gave an inhibition at 1 µM (5-HT7 receptor) of 98% and an inhibition at 1 µM [3] of 6%.

For Cc1c(S(=O)(=O)N[C@H]2CCN(CCCc3noc4cc(F)ccc34)C2)sc2ccc(Cl)cc12 [Compound 205, 5-Chloro-N-[(3S)-1-[3-(6-fluoro-1,2-benzoxazol-3-yl)propyl]pyrrolidin-3-yl]-3-methyl-benzothiophene-2-sulphonamide], the “D2 ag [%]” value [1] was 3%, the “D2 antag [%]” value [1] was 61% and the “5-HT6 ag [%]” value [2] was 1%. It also gave an inhibition at 1 µM (α2C adrenergic receptors) of 86%, an inhibition at 1 µM (5-HT6 receptor) of 94% and a Ki (5-HT6 receptor) of 41 nM. The inhibition at 1 µM (receptors D4.4) was 73%, the inhibition at 1 µM (5-HT7 receptor) was 98% and the inhibition at 1 µM [3] was 45%.

O=S(=O)(N[C@H]1CCN(CCCc2noc3cc(F)ccc23)C1)c1cc2ccc(Cl)cc2s1 [Compound 199, 6-Chloro-N-[(3S)-1-[3-(6-fluoro-1,2-benzoxazol-3-yl)propyl]pyrrolidin-3-yl]benzothiophene-2-sulphonamide] was tested, and the “D2 ag [%]” value [1] was 4%, the “D2 antag [%]” value [1] was 46% and the “5-HT6 ag [%]” value [2] was −3%. For the same molecule, the inhibition at 1 µM (α2C adrenergic receptors) was 82%, the inhibition at 1 µM (5-HT6 receptor) was 91% and the Ki (5-HT6 receptor) was 99 nM. For the same molecule, the inhibition at 1 µM (receptors D4.4) was 69%, the inhibition at 1 µM (5-HT7 receptor) was 94% and the inhibition at 1 µM [3] was 39%.

With Cc1cccc(S(=O)(=O)NC2CCN(CCCc3c[nH]c4ccc(F)cc34)C2)c1 (centres unmarked) [Compound 78, N-[1-[3-(5-Fluoro-1H-indol-3-yl)propyl]pyrrolidin-3-yl]-3-methyl-benzenesulphonamide] the “5-HT6 ag [%]” value [2] was 54%, the inhibition at 1 µM (α2C adrenergic receptors) was 85% and the inhibition at 1 µM (5-HT6 receptor) was 94%. The Ki (5-HT6 receptor) was 42 nM, the inhibition at 1 µM (receptors D4.4) was 79% and the inhibition at 1 µM (5-HT7 receptor) was 89%. It also gave an inhibition at 1 µM [3] of 101% and a Ki ([3]; read-out: Inhibition constants Ki for SERT, SERT) of 1 nM.

In the case of O=S(=O)(N[C@@H]1CCN(CCCc2noc3cc(F)ccc23)C1)c1cc2ccccc2o1 [Compound 214, N-[(3R)-1-[3-(6-Fluoro-1,2-benzoxazol-3-yl)propyl]pyrrolidin-3-yl]benzo-furan-2-sulphonamide], the “D2 ag [%]” value [1] is reported as 3%, the “D2 antag [%]” value [1] is reported as 89% and the “5-HT6 ag [%]” value [2] is reported as −4%. For the same molecule, the inhibition at 1 µM (α2C adrenergic receptors) was 74%, the inhibition at 1 µM (5-HT6 receptor) was 97% and the Ki (5-HT6 receptor) was 7.5 nM. For the same molecule, the inhibition at 1 µM (receptors D4.4) was 61%, the inhibition at 1 µM (5-HT7 receptor) was 98% and the inhibition at 1 µM [3] was 15%.

O=S(=O)(N[C@@H]1CCN(CCCc2noc3cc(F)ccc23)C1)c1cc2ccc(Cl)cc2s1 [Compound 198, 6-Chloro-N-[(3R)-1-[3-(6-fluoro-1,2-benzoxazol-3-yl)propyl]pyrrolidin-3-yl]benzothiophene-2-sulphonamide] was tested, and the “D2 ag [%]” value [1] was 4%, the “D2 antag [%]” value [1] was 83% and the “5-HT6 ag [%]” value [2] was −1%. For the same molecule, the inhibition at 1 µM (α2C adrenergic receptors) was 80%, the inhibition at 1 µM (5-HT6 receptor) was 97% and the Ki (5-HT6 receptor) was 8.6 nM. It also gave an inhibition at 1 µM (receptors D4.4) of 48%, an inhibition at 1 µM (5-HT7 receptor) of 93% and an inhibition at 1 µM [3] of 44%.

Cc1cc(S(=O)(=O)N[C@H]2CCN(CCCc3noc4cc(F)ccc34)C2)c(C)s1 [Compound 223, N-[(3S)-1-[3-(6-Fluoro-1,2-benzoxazol-3-yl)propyl]pyrrolidin-3-yl]-2,5-dimethyl-thiophene-3-sulphonamide] was tested, and the “5-HT6 ag [%]” value [2] was −1%, the inhibition at 1 µM (α2C adrenergic receptors) was 60% and the inhibition at 1 µM (5-HT6 receptor) was 94%. It also gave an inhibition at 1 µM (receptors D4.4) of 92%, an inhibition at 1 µM (5-HT7 receptor) of 100% and an inhibition at 1 µM [3] of 17%.

For O=S(=O)(NC1CCN(CCOc2nsc3ccccc23)C1)c1ccc2ccccc2c1 (centres unmarked) [Compound 39, N-[1-[2-(1,2-Benzothiazol-3-yloxy)ethyl]pyrrolidin-3-yl]naphthalene-2-sulphonamide], the “5-HT6 ag [%]” value [2] was −1%, the inhibition at 1 µM (α2C adrenergic receptors) was 92% and the inhibition at 1 µM (5-HT6 receptor) was 92%. It also gave an inhibition at 1 µM (receptors D4.4) of 73%, an inhibition at 1 µM (5-HT7 receptor) of 90% and an inhibition at 1 µM [3] of 29%.
